Measurements published in patent US10165776B2, “Substituted pyrazolylpyrazole derivative and use of same as herbicide” (KYOYU AGRI CO., LTD., priority 2015, dated 2019).

Columns and labels:
Digitaria ciliaris = assay: Weed foliar treatment test (Test 4, 4.0 to 5.0 leaf stage); format: in vivo; conditions: 10 g a.i./10 a; foliar spray at 4.0 to 5.0 leaf stage of Digitaria ciliaris (plant height 10 cm to 15 cm); 20 days at 25° C.
Description: (§1) Field soil was filled into a 1/4500 are pot followed by seeding with Digitaria ciliaris and Galinsoga parviflora, covering with soil and cultivating in a glass greenhouse at an average atmospheric temperature of 25° C. Wettable powders of Target Compound (I) shown in Table 1 prepared in compliance with the preparation examples were diluted with water to the prescribed amount of chemical and uniformly sprayed onto the weeds using 100 liters of sprayed water per 10 are when Digitaria ciliaris had grown to the 4.0 to 5.0 leaf stage (plant height: 10 cm to 15 cm). After treating for 20 days in a glass greenhouse at an average atmospheric temperature of 25° C., the herbicidal efficacy thereof was investigated. Evaluation of herbicidal efficacy was carried out in the same manner as the above-mentioned Test Example 1.

Galinsoga parviflora = assay: as above; format: in vivo; conditions: 10 g a.i./10 a; foliar spray at 4.0 to 5.0 leaf stage of Digitaria ciliaris (plant height 10 cm to 15 cm); 20 days at 25° C.
Description: as §1

Row | Structure (SMILES) | herbicidal efficacy, Digitaria ciliaris (Digitaria ciliaris) | herbicidal efficacy, Galinsoga parviflora (Galinsoga parviflora)
1 | N#Cc1cnn(-c2nn3c(c2Cl)CCC3)c1NC(=O)Cc1ccccc1 [Compound 2] | 10 (10: 100%) | 10 (10: 100%)
2 | N#Cc1cnn(-c2nn3c(c2Br)CCCC3)c1NC(=O)Cc1ccccc1 [Compound 4] | 10 (10: 100%) | 10 (10: 100%)
3 | COc1ccccc1CC(=O)Nc1c(C#N)cnn1-c1nn2c(c1Cl)CCCC2 [Compound 7] | 10 (10: 100%) | 10 (10: 100%)
4 | N#Cc1cnn(-c2nn3c(c2Cl)CCCC3)c1NC(=O)Cc1ccccc1Cl [Compound 8] | 10 (10: 100%) | 10 (10: 100%)
5 | COc1cccc(CC(=O)Nc2c(C#N)cnn2-c2nn3c(c2Cl)CCCC3)c1 [Compound 10] | 10 (10: 100%) | 10 (10: 100%)
6 | N#Cc1cnn(-c2nn3c(c2Cl)CCCC3)c1NC(=O)Cc1cccc(Cl)c1 [Compound 12] | 10 (10: 100%) | 10 (10: 100%)
7 | Cc1ccc(CC(=O)Nc2c(C#N)cnn2-c2nn3c(c2Cl)CCCC3)cc1 [Compound 13] | 10 (10: 100%) | 10 (10: 100%)
8 | COc1ccc(CC(=O)Nc2c(C#N)cnn2-c2nn3c(c2Cl)CCCC3)cc1 [Compound 14] | 10 (10: 100%) | 10 (10: 100%)
9 | N#Cc1cnn(-c2nn3c(c2Cl)CCCC3)c1NC(=O)Cc1ccc(Cl)cc1 [Compound 16] | 10 (10: 100%) | 10 (10: 100%)
10 | N#Cc1cnn(-c2nn3c(c2Cl)CCCC3)c1NC(=O)Cc1ccc(C(F)(F)F)cc1 [Compound 17] | 10 (10: 100%) | 10 (10: 100%)
11 | N#Cc1cnn(-c2nn3c(c2Cl)CCCC3)c1NC(=O)Cc1ccc(Cl)cc1Cl [Compound 18] | 10 (10: 100%) | 10 (10: 100%)
